Reference: patent publication US20180111893A1, “POLYCATIONIC AMPHIPHILES AND POLYMERS THEREOF AS ANTIMICROBIAL AGENTS AND METHODS USING SAME” (Temple University-Of The Commonwealth System of Higher …, priority 2015, published 2018)
Like-named read-outs stand apart in the source and are kept apart here.

Key:
[1] = system: Escherichia coli (MC4100); test: Minimum inhibitory concentration (MIC); assay type: cell-based; conditions: for MIC v EC: Table 1
Procedure: (§1) As used herein, the term “minimum inhibitory concentration (MIC)” refers to the lowest concentration of an antimicrobial agent that will inhibit the visible growth of a microorganism after overnight incubation. MIC values against bacteria, for example, the Gram-positive Staphylococcus aureus and Enterococcus faecalis and the Gram-negative Escherichia coli and Pseudomonas aeruginosa were determined by standard methods. See also P. A. Wayne, Methods for Dilution Antimicrobial Tests for Bacteria that Grow Aerobically; Approved Standard, Ninth Edition, 2012, CLSI Document M07-A9, Vol. 32 No. 2, which is incorporated by reference herein in its entirety.
(§2) Compounds were serially diluted two-fold from a 10% DMSO/aqueous stock solution to yield twelve test concentrations. Overnight S. aureus, E. faecalis, E. coli, P. aeruginosa, CA-MRSA, and HA-MRSA cultures diluted to ca. 10^6 cfu/mL in Mueller-Hinton media and 100 μL were inoculated into each well of a U-bottom 96-well plate (BD Biosciences, BD351177) containing 100 μL of compound solution. Plates were incubated statically at 37° C. for 72 hours upon which time wells were evaluated visually for bacterial growth. The MIC was determined as the lowest concentration of compound resulting in no bacterial growth visible to the naked eye, based on the majority of three independent experiments. Positive and negative DMSO/aqueous solution and media controls were conducted for each trial. See Peng et al., 2011, Chem. Comm. 47:4896-4898.
as §2, with “trial.” for “trial. See Peng et al., 2011, Chem. Comm. 47:4896-4898.”

[2] = system: Pseudomonas aeruginosa (PAO1); test: Minimum inhibitory concentration (MIC); assay type: cell-based; conditions: for MIC v PA: Table 1
Procedure: as §1, §2
as §2, with “trial.” for “trial. See Peng et al., 2011, Chem. Comm. 47:4896-4898.”

[3] = system: Enterococcus faecalis (OG1RF); test: Minimum inhibitory concentration (MIC); assay type: cell-based; conditions: for MIC v EF: Table 1
Procedure: as §1, §2
as §2, with “trial.” for “trial. See Peng et al., 2011, Chem. Comm. 47:4896-4898.”

[4] = system: Staphylococcus aureus (MSSA) biofilms; test: Minimum biofilm eradication concentration (MBEC), regrowth assay; assay type: cell-based; conditions: Table 1
Procedure: (§3) A regrowth assay was used to establish the MBEC of a compound to evaluate the antibiofilm activity. See also H. Ceri, M. Olson, D. Morck, D. Storey, R. Read, A. Buret, B. Olson, Methods Enzymol. 2001, 337, 377, which is incorporated by reference herein in its entirety.
(§4) To each well of a flat-bottomed 96-well plate (Corning 3370), 8 μL of overnight bacterial culture was brought to a volume of 200 μL with fresh media (BHI for MSSA and MRSA). Plates were incubated statically for 24 hours at 37° C. to establish biofilms. After 24 hours, the wells were carefully emptied by inverting the plate and gently shaking. A pre-mixed solution of media and compound stock solution was added to each well and plates were incubated at 37° C. 16 hours after pre-established biofilms were treated with compound, the media from each well was removed, biofilms were washed three times with 200 μL PBS to remove planktonic cells, and biofilms were incubated overnight at 37° C. in 200 μL of fresh media to allow any viable cells to continue growing. The wells were then vigorously pipetted to resuspend the biofilm cells and the OD at 595 nm was measured using a plate reader (POLARstar Omega, BMG Labtech). Biofilms reaching a final OD of less than 0.1 were considered eradicated and the lowest concentration of antibiotic corresponded to the MBEC. Four replicates were completed for each concentration of compound as well as positive and negative controls.

[5] = system: Enterococcus faecalis biofilms; test: as above; assay type: cell-based; conditions: Table 1
Description: as §3

[6] = system: Staphylococcus aureus (SA; MSSA SH1000); test: Minimum inhibitory concentration (MIC); assay type: cell-based
Procedure: as §1, §2
as §2, with “trial.” for “trial. See Peng et al., 2011, Chem. Comm. 47:4896-4898.”

Pseudomonas aeruginosa = system: Pseudomonas aeruginosa; set-up: MIC against Pseudomonas aeruginosa: unit not given here; conditions: cited from earlier work
[7] = system: MRSA biofilms (S. aureus USA300-0114); test: Minimum biofilm eradication concentration (MBEC), regrowth assay; assay type: cell-based, Staphylococcus aureus; conditions: Table 2; pre-formed MRSA biofilms
Procedure: as §3, §4

red blood cells = assay type: cell-based, sheep
Procedure: To date, synthesized compounds have been evaluated against planktonic bacteria (E. coli, S. aureus, P. aeruginosa, E. facaelis) and bacterial biofilms (E. facaelis, S. aureus, MRSA); new compounds are similarly assessed. All compounds are also evaluated via a hemolysis assay to assess their ability to lyse red blood cells (RBC) (Nagamune et al., 2000, Toxicology in Vitro 14:139-147). The assay is conducted following a known protocol to determine the concentration of compound that causes 20% of RBCs to be lysed. […] All compounds are benchmarked against three commercial antiseptics—benzalkonium chloride, DDAC, and CHX (FIG. 1).
Hemolysis assays were performed according to a known method (Peng et al., 2011, Chem. Comm. 47:4896-4898). Defibrinated sheep blood was purchased from Hemostat Labs (DSB030). Compounds representative of each class were serially diluted in sterile PBS from stock solutions and incubated with resuspended blood cells. The OD of the final suspensions were measured directly using plate reader. TritonX (1% by volume) served as a positive control (100% lysis marker) and sterile PBS served as a negative control (0% lysis marker).

[8] = system: community-acquired methicillin-resistant Staphylococcus aureus CA-MRSA (USA300-0114); test: Minimum inhibitory concentration (MIC); assay type: cell-based; conditions: for MIC v MRSA: Table 2, qac-bearing MRSA strain USA300-0114
Procedure: as §1, §2
as §2, with “trial.” for “trial. See Peng et al., 2011, Chem. Comm. 47:4896-4898.”

[9] = system: six bacteria (SA, HA-MRSA, CA-MRSA, EF, EC, PA); test: MIC against the panel of bacteria tested; assay type: cell-based; conditions: for antimicrobial activity: quinine- and nicotine-derived QACs, in words; for low micromolar activity: all bacteria except for P. aeruginosa
Procedure: as §1
The complete set of MIC values against six bacteria [Staphylococcus aureus (SA), hospital-acquired methicillin-resistant SA (HA-MRSA), community-acquired methicillin-resistant SA (CA-MRSA), Enterococcus faecalis (EF), Escherichia coli (EC), and Pseudomonas aeruginosa (PA)] is presented in Table 3, wherein multiQACs are grouped with their monoQAC counterparts. The dye-based QACs with greatest inhibition of the complete range of Gram-positive and Gram-negative bacteria featured bis- or tris-quaternization, with the optimal alkyl total ranging from 17-24 carbons. For example, comparison of two biscationic series -LMG-n,1 and LMG-n,n—evaluates the effect of total alkyl chain length in retention of efficacy against the more challenging CA-MRSA and the Gram-negative strains EC and PA.
as §2

[10] = system: two MRSA strains-USA300-0114 and ATCC33591; test: MIC against MRSA strains compared to MSSA; assay type: cell-based, Staphylococcus aureus; conditions: natural product-derived QACs; for susceptibility to QAC/MRSA resistance: MSSA vs MRSA, in words
Procedure: as §2
MIC values against Gram-positive Staphylococcus aureus (methicillin-susceptible Staphyloccocus aureus (MSSA) and two MRSA strains-USA300-0114 and ATCC33591) and Enterococcus faecalis and Gram-negative Escherichia coli and P. aeruginosa were determined according to standard, and results appear in Table 4.

[11] = system: methicillin-resistant Staphyloccocus aureus (MRSA); conditions: at 350 μm, cited from earlier work
[12] = system: hospital-acquired methicillin-resistant Staphylococcus aureus HA-MRSA (ATCC 33591); test: Minimum inhibitory concentration (MIC); assay type: cell-based; conditions: Table 6
Procedure: as §1, §2
as §2, with “trial.” for “trial. See Peng et al., 2011, Chem. Comm. 47:4896-4898.”

[13] = Table 2, non-resistant S. aureus strain (SH1000)

In the case of `CCCCCCCCCCCC[N+](C)(C)CCCN(C)CCC[N+](C)(C)CCCCCCCCCCCC` [12(3)0(3)12], the “MIC v EC” value [1] is reported as 1 µM, the “MIC v PA” value [2] is reported as 4 µM and the “MIC v EF” value [3] is reported as 2 µM. For the same compound, the “MBEC v SA” value [4] was 37.5 µM, the “MBEC v EF” value [5] was 50 µM and the “MIC v SA” value ([6]; Table 1) was 1 µM.
In the case of `CCCCCCCCCCCC[N+](C)(C)CCC[N+](C)(C)CCC[N+](C)(C)CCCCCCCCCCCC` [12(3)1(3)12], the “MIC v EC” value [1] is reported as 2 µM, the “MIC v PA” value [2] is reported as 8 µM and the “MIC v EF” value [3] is reported as 2 µM. The “MBEC v SA” value [4] was 50 µM, the “MBEC v EF” value [5] was 50 µM and the “MIC v SA” value ([6]; Table 1) was 1 µM.
For `COc1ccc2cc3[n+](cc2c1OC)CCc1cc2c(cc1-3)OCO2` [Berberine, berberine], the “activity against P. aeruginosa” value (Pseudomonas aeruginosa; in words, literature) is given as “micromolar activity”.
With `CCCCCCCCCCCCCCCC[n+]1ccccc1` [Cetyl pyridinium chloride] the “MBEC v MRSA” value [7] was 200 µM, the Lysis20 (red blood cells; concentration at which 20% of RBCs are lysed) was 8 µM and the “TI MRSA” value (red blood cells; therapeutic index, Lysis20/MIC v MRSA) was 0.5. For the same compound, the “TI SA” value (red blood cells; therapeutic index, Lysis20/MIC v SA) was 16.
In the case of `CCCCCCCCCCCC[N+](C)(C)CCN(C)CCN(C)CC[N+](C)(C)CCCCCCCCCCCC` [N4-12,0,0,12], the “MIC v EC” value [1] is reported as 1 µM, the “MIC v PA” value [2] is reported as 2 µM and the “MIC v EF” value [3] is reported as 1 µM. For the same compound, the “MBEC v SA” value [4] was 50 µM, the “MBEC v EF” value [5] was 75 µM and the “MIC v SA” value ([6]; Table 1) was 1 µM.
With `C=CC[N+](C)(CC[N+](C)(C)CCCCCCCCCCCC)CC[N+](C)(CC=C)CC[N+](C)(C)CCCCCCCCCCCC` (stereo not shown) [N4-12,allyl,allyl,12] the “MBEC v MRSA” value [7] was 150 µM, the “MIC v MRSA” value [8] was 1 µM and the MIC ([9]; FIG. 4 legend, range of MIC values) was 1 to 2 µM. The Lysis20 (red blood cells) was 8 µM, the “TI MRSA” value (red blood cells) was 8 and the “TI SA” value (red blood cells) was 8. For the same compound, the “MIC v SA” value [6, 13] was 1 µM.
In the case of `C[n+]1cccc([C@@H]2CCC[N+]2(C)C)c1` [N-1,1], the antimicrobial activity [9] is reported as “essentially no antimicrobial activity”.
With `CCCCCCCCCCCCCCCC[n+]1cccc([C@@H]2CCCN2C)c1.[Br-]` [N-16,0] the low micromolar activity [9] was 4 µM.
`CCCCCCCCCCCCCCCCCC[n+]1cccc([C@@H]2CCC[N+]2(C)C)c1.[Br-].[I-]` [N-18,1] showed a low micromolar activity [9] of 4 µM.
In the case of `CCCCCCCCCCC[n+]1ccc(-c2cc[n+](CCCCCCCCCCC)cc2)cc1` [PQ-11,11], the “MIC v EC” value [1] is reported as 1 µM, the “MIC v PA” value [2] is reported as 4 µM and the “MIC v EF” value [3] is reported as 1 µM. For the same compound, the “MBEC v SA” value [4] was 50 µM, the “MBEC v EF” value [5] was 50 µM and the “MIC v SA” value ([6]; Table 1) was 1 µM.
For `C=CC1C[N+]2(C)CCC1C[C@H]2[C@@H](O)c1cc[n+](C)c2ccc(OC)cc12` (stereo partly shown) [Q-1,1], the antimicrobial activity [9] was “essentially no antimicrobial activity”.
For `C=CC1C[N+]2(CCCCCCCCCCCCCC)CCC1C[C@H]2[C@@H](O)c1ccnc2ccc(OC)cc12.[Br-]` (stereo partly shown) [Q-14,0], the antimicrobial activity [9] was “strongest activity”.
For `C=CC1C[N+]2(CCCCCCCCCCCCCCCC)CCC1C[C@H]2[C@@H](O)c1cc[n+](C)c2ccc(OC)cc12.[Br-].[I-]` (stereo partly shown) [Q-16,1], the “susceptibility to QAC/MRSA resistance” value [10] was “unaffected by QAC resistance” and the antimicrobial activity [9] was “single-digit micromolar activity”.
For `C=CC1C[N+]2(CCCCCCCCCCCCCCCCCC)CCC1C[C@H]2[C@@H](O)c1ccnc2ccc(OC)cc12.[Br-]` (stereo partly shown) [Q-18,0], the “increase in MIC of MRSA as compared to MSSA” value [10] was 32 fold.
With `C=CC1C[N+]2(CCCCCCCCCCCCCCCCCC)CCC1C[C@H]2[C@@H](O)c1cc[n+](C)c2ccc(OC)cc12.[Br-].[I-]` (stereo partly shown) [Q-18,1] the “susceptibility to QAC/MRSA resistance” value [10] was “unaffected by QAC resistance” and the antimicrobial activity [9] was “single-digit micromolar activity”.
For `COc1cc2c(cc1O)[C@@H](Cc1ccc(O)cc1)[N+](C)(C)CC2` [magnocuraine, magnocurarine], the “effectiveness against MRSA” value ([11]; in words) is given as “no effectiveness”.
For Latifolian A, the “MIC against Pseudomonas aeruginosa” value (Pseudomonas aeruginosa; Martin et al., 2011) is given as 35 and the “inhibition of MRSA” value [11] is given as 55%.
For “benzalkonium chloride [reference compound]”, the “MIC v EC” value [1] was 32 µM, the “MIC EC” value ([1]; Table 6) was 32 µM and the “MIC v PA” value [2] was 63 µM. The “MIC PA” value ([2]; Table 6) was 63 µM, the “MIC HA-MRSA” value [12] was 32 µM and the “MIC v EF” value [3] was 8 µM. The “MIC EF” value ([3]; Table 6) was 8 µM, the “MBEC v MRSA” value [7] was >200 µM and the “MIC v MRSA” value [8] was 32 µM. For the same compound, the “MIC CA-MRSA” value ([8]; Table 6) was 8 µM, the “MBEC v SA” value [4] was 200 µM and the “MBEC v EF” value [5] was 200 µM. For the same compound, the Lysis20 (red blood cells) was 63 µM, the “TI MRSA” value (red blood cells) was 2 and the “TI SA” value (red blood cells) was 8. For the same compound, the “MIC v SA” value ([6]; Table 1) was 8 µM, the “MIC v SA” value [6, 13] was 8 µM and the “MIC SA” value ([6]; Table 6) was 8 µM.
